Laboratory results published in ChEMBL document CHEMBL1201862, “PubChem BioAssay data set” (2004).
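Step 1: Grow cells in 96-well plates. Step 2: Expose to compound for 48 hours at 5 concentrations. Step 3: Interpolate endpoints linearly; if unreached, use highest concentration. The concentration for 50% growth inhibition is given as GI50.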 Active and inactive are the calls of the source. No stated cut-off is given here; in the data, active = GI50 up to about 1.1 µM and inactive = higher.

How the values were obtained:
Experiment in all cases: NCI tumour cell line growth inhibition, 48 h
OVCAR-4 = system: OVCAR-4
CAKI-1 = system: CAKI-1
SF-295 = system: SF-295
K562 = system: K562
UO-31 = system: UO-31
DLD-1 = system: DLD-1
TK-10 = system: TK-10
RPMI-8226 = system: RPMI-8226
HCC 2998 = system: HCC 2998
HOP-62 = system: HOP-62
HOP-92 = system: HOP-92
HCT-15 = system: HCT-15
A498 = system: A498
OVCAR-5 = system: OVCAR-5
MDA-MB-231 = system: MDA-MB-231
DU-145 = system: DU-145
NCI/ADR-RES = system: NCI/ADR-RES
BT-549 = system: BT-549
MCF7 = system: MCF7
MDA-MB-435 = system: MDA-MB-435

Row | Structure (SMILES) | GI50 (OVCAR-4) | GI50 (CAKI-1) | GI50 (SF-295) | GI50 (K562) | GI50 (UO-31) | GI50 (DLD-1) | GI50 (TK-10) | GI50 (RPMI-8226) | GI50 (HCC 2998) | GI50 (HOP-62) | GI50 (HOP-92) | GI50 (HCT-15) [µM] | GI50 (A498) | GI50 (OVCAR-5) | GI50 (MDA-MB-231) | GI50 (DU-145) | GI50 (NCI/ADR-RES) | GI50 (BT-549) | GI50 (MCF7) | GI50 (MDA-MB-435)
1 | CCCN(CCC)C(=O)Cc1c2n(c3ccccc13)Cc1ccccc1-2 | 49.5 µM (inactive) | 30.1 µM (inactive) | 33.8 µM (inactive) | > 100 µM (inactive) | 35.1 µM (inactive) | 63.4 µM (inactive) | > 100 µM (inactive) | 59 µM (inactive) | > 100 µM (inactive) | > 100 µM (inactive) | 5 µM (inactive) | > 100 | – | – | – | – | – | – | – | –
2 | O=C(Nc1ccc([N+](=O)[O-])cc1[N+](=O)[O-])C(=O)C(C(=O)c1ccc(Cl)c(Cl)c1)C1OC(=O)c2ccccc21 (stereo unspecified) | 42.9 µM (inactive) | 38 µM (inactive) | 17.8 µM (inactive) | 28.4 µM (inactive) | 26.3 µM (inactive) | 19.1 µM (inactive) | 32.1 µM (inactive) | 25 µM (inactive) | > 10 µM (inactive) | 16.7 µM (inactive) | 1.26 µM (inactive) | 27.2 | 21.4 µM (inactive) | 25.8 µM (inactive) | – | – | – | – | – | –
3 | NC(=O)c1c(-c2ccccc2)c(-c2ccccc2)cc2c(=O)c3ccccc3[nH]c12 | 12.5 µM (inactive) | – | 40.4 µM (inactive) | 30.3 µM (inactive) | 33.7 µM (inactive) | 35.3 µM (inactive) | 18.5 µM (inactive) | 28.4 µM (inactive) | 43.2 µM (inactive) | 24.2 µM (inactive) | 24.9 µM (inactive) | 29.8 | 19.4 µM (inactive) | 65.8 µM (inactive) | – | – | – | – | – | –
4 | Nc1c(-c2nc3ccccc3[nH]2)sc(=S)n1-c1ccccc1 | > 100 µM (inactive) | > 100 µM (inactive) | 72.8 µM (inactive) | 53.8 µM (inactive) | > 100 µM (inactive) | 60.7 µM (inactive) | – | 34 µM (inactive) | > 100 µM (inactive) | > 100 µM (inactive) | > 100 µM (inactive) | > 100 | > 100 µM (inactive) | > 100 µM (inactive) | – | – | – | – | – | –
5 | O=C(O)[C@H](NS(=O)(=O)c1ccc(F)cc1)c1ccccc1 | > 100 µM (inactive) | > 100 µM (inactive) | > 100 µM (inactive) | > 100 µM (inactive) | > 100 µM (inactive) | > 100 µM (inactive) | > 100 µM (inactive) | > 100 µM (inactive) | > 100 µM (inactive) | > 100 µM (inactive) | – | > 100 | – | > 100 µM (inactive) | – | – | – | – | – | –
6 | O=[N+]([O-])c1ccc(C2=Nn3cnnc3SC2)o1 | > 10 µM (inactive) | > 10 µM (inactive) | 18.3 µM (inactive) | 21.5 µM (inactive) | 21.4 µM (inactive) | 19.6 µM (inactive) | 39.7 µM (inactive) | 14.6 µM (inactive) | 15.8 µM (inactive) | 38.2 µM (inactive) | 26.1 µM (inactive) | 12 | 16.3 µM (inactive) | 22.2 µM (inactive) | – | – | – | – | – | –
7 | CC(=O)Nc1[nH]n(C)c(=O)c1-c1nnc(C)s1 | > 100 µM (inactive) | > 100 µM (inactive) | – | > 100 µM (inactive) | > 100 µM (inactive) | > 100 µM (inactive) | > 100 µM (inactive) | > 100 µM (inactive) | > 100 µM (inactive) | > 100 µM (inactive) | > 100 µM (inactive) | > 100 | > 100 µM (inactive) | > 100 µM (inactive) | – | – | – | – | – | –
8 | O/N=C1/C(=C/c2ccc(OCc3ccccc3)cc2)CCCC1C(NO)c1ccc(OCc2ccccc2)cc1 (stereo unspecified) | 6.41 µM (inactive) | 5.87 µM (inactive) | – | 9.53 µM (inactive) | 14.6 µM (inactive) | 10.2 µM (inactive) | – | – | 46 µM (inactive) | 38.9 µM (inactive) | 11.1 µM (inactive) | 6.24 | > 100 µM (inactive) | > 100 µM (inactive) | – | – | – | – | – | –
9 | C=C[Si](C)(C)COC(=O)/C(C#N)=C/C=C/c1ccccc1 | > 100 µM (inactive) | – | > 100 µM (inactive) | 59 µM (inactive) | > 100 µM (inactive) | > 100 µM (inactive) | – | 37.2 µM (inactive) | > 100 µM (inactive) | > 100 µM (inactive) | > 100 µM (inactive) | 78.2 | – | > 100 µM (inactive) | – | – | – | – | – | –
10 | CC12CC(=O)NN=C1c1ccccc1C2 (stereo unspecified) | – | > 100 µM (inactive) | > 100 µM (inactive) | > 100 µM (inactive) | > 100 µM (inactive) | > 100 µM (inactive) | > 100 µM (inactive) | > 100 µM (inactive) | > 100 µM (inactive) | > 100 µM (inactive) | – | > 100 | > 100 µM (inactive) | > 100 µM (inactive) | – | – | – | – | – | –
11 | O=[N+]([O-])c1ccc(C2=Nn3c(nnc3-c3ccccc3)SC2)o1 | 19.6 µM (inactive) | 19.9 µM (inactive) | 17.4 µM (inactive) | 20.4 µM (inactive) | – | 14 µM (inactive) | 19.6 µM (inactive) | 5.81 µM (inactive) | 18.9 µM (inactive) | 44.3 µM (inactive) | 13.2 µM (inactive) | 16.1 | > 100 µM (inactive) | 29.6 µM (inactive) | – | – | – | – | – | –
12 | N=C(N)NS(=O)(=O)c1ccc(NC(=O)c2cccc3cc4ccccc4nc23)cc1 | 28 µM (inactive) | > 100 µM (inactive) | > 100 µM (inactive) | 53 µM (inactive) | > 100 µM (inactive) | > 100 µM (inactive) | > 100 µM (inactive) | > 100 µM (inactive) | – | 94.2 µM (inactive) | – | > 100 | > 100 µM (inactive) | > 100 µM (inactive) | – | – | – | – | – | –
13 | Cc1c(-c2cnccn2)ssc1=S [OLTIPRAZ] | > 100 µM (inactive) | > 100 µM (inactive) | 57.4 µM (inactive) | > 100 µM (inactive) | 40 µM (inactive) | – | 62.7 µM (inactive) | > 100 µM (inactive) | > 100 µM (inactive) | 47 µM (inactive) | 26.8 µM (inactive) | 62.8 | 34.8 µM (inactive) | > 100 µM (inactive) | 63.2 µM (inactive) | > 100 µM (inactive) | > 100 µM (inactive) | 22 µM (inactive) | > 100 µM (inactive) | > 100 µM (inactive)
14 | CC1OC(OC2C(CO)OC(O[C@H]3CC[C@@]4(C)C(=CC[C@H]5[C@@H]6C[C@@H]7O[C@]8(CC[C@@H](C)CN8)[C@@H](C)[C@@H]7[C@@]6(C)CC[C@@H]54)C3)C(O)C2O)C(O)C(O)C1O (stereo partly specified) | > 100 µM (inactive) | > 100 µM (inactive) | > 100 µM (inactive) | > 100 µM (inactive) | > 100 µM (inactive) | 55 µM (inactive) | > 100 µM (inactive) | > 100 µM (inactive) | – | > 100 µM (inactive) | 31.7 µM (inactive) | > 100 | > 100 µM (inactive) | > 100 µM (inactive) | – | – | – | – | – | –
15 | C[N+]1(C)C[C@@H](O)C[C@@H]1C(=O)[O-] [BETONICINE] | > 100 µM (inactive) | – | > 100 µM (inactive) | > 100 µM (inactive) | > 100 µM (inactive) | > 100 µM (inactive) | > 100 µM (inactive) | > 100 µM (inactive) | > 100 µM (inactive) | > 100 µM (inactive) | > 100 µM (inactive) | > 100 | > 100 µM (inactive) | – | – | – | – | – | – | –
16 | COc1ccc(C(=O)/C=C2\Nc3cccnc3N\C2=C/C(=O)c2ccc(OC)cc2)cc1 | 2.67 µM (inactive) | 17.2 µM (inactive) | 16.9 µM (inactive) | 57.9 µM (inactive) | 27.4 µM (inactive) | – | 13.2 µM (inactive) | 42.2 µM (inactive) | 23.9 µM (inactive) | 4.94 µM (inactive) | 53.1 µM (inactive) | 32.1 | > 100 µM (inactive) | 42.3 µM (inactive) | 13.5 µM (inactive) | 19.9 µM (inactive) | 17.4 µM (inactive) | 18.8 µM (inactive) | 14.8 µM (inactive) | 20.3 µM (inactive)
17 | COc1ccc([N+]2=NC(c3ccc([N+](=O)[O-])cc3)=NN(c3ccccc3)C2)cc1 | 22.6 µM (inactive) | – | > 10 µM (inactive) | 21 µM (inactive) | 26.9 µM (inactive) | 26.5 µM (inactive) | > 100 µM (inactive) | 24.7 µM (inactive) | > 100 µM (inactive) | > 100 µM (inactive) | – | 24.8 | 41.6 µM (inactive) | > 100 µM (inactive) | – | – | – | – | – | –
18 | CC(C)=CC(=O)CC(=O)C(=O)Nc1ccc(C)c(C)c1 | – | > 100 µM (inactive) | > 100 µM (inactive) | > 100 µM (inactive) | > 100 µM (inactive) | > 100 µM (inactive) | > 100 µM (inactive) | > 100 µM (inactive) | – | – | > 100 µM (inactive) | > 100 | – | – | – | – | – | – | – | –
19 | C=C1C(OC)=C(OC)C(=O)c2[nH]c3c(OC)cc([N+](=O)[O-])cc3c21 | > 100 µM (inactive) | > 100 µM (inactive) | > 100 µM (inactive) | > 100 µM (inactive) | > 100 µM (inactive) | – | > 100 µM (inactive) | > 100 µM (inactive) | > 100 µM (inactive) | 85.7 µM (inactive) | > 100 µM (inactive) | > 100 | > 100 µM (inactive) | > 100 µM (inactive) | > 100 µM (inactive) | > 100 µM (inactive) | > 100 µM (inactive) | > 100 µM (inactive) | > 100 µM (inactive) | > 100 µM (inactive)
20 | Cc1cccc(-n2c(N)c(-c3nc4ccccc4[nH]3)sc2=S)c1 | 43.4 µM (inactive) | 47.4 µM (inactive) | 28.1 µM (inactive) | 29.2 µM (inactive) | 33 µM (inactive) | 25.1 µM (inactive) | 29.5 µM (inactive) | 20.7 µM (inactive) | > 10 µM (inactive) | 29.6 µM (inactive) | – | 20.7 | 89.3 µM (inactive) | 55.1 µM (inactive) | – | – | – | – | – | –
